Measured values taken from the supplement of paper PMC10307832.

Tests used:
Assay in all cases: relative viability (nuclei count vs DMSO), 5 days (fraction); higher = more cells survive
[1] = compound: CC[C@H](CO)Nc1nc(NCc2ccccc2)c2ncn(C(C)C)c2n1 [Seliciclib] + CC1(C)CCC(c2ccc(Cl)cc2)=C(CN2CCN(c3ccc(C(=O)NS(=O)(=O)c4ccc(N[C@H](CCN5CCOCC5)CSc5ccccc5)c(S(=O)(=O)C(F)(F)F)c4)cc3)CC2)C1 [Navitoclax] (partner 0.5 µM)
Method in brief: (§1)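 Cells from lung cancer lines were seeded into 1536-well plates and, one day later, dosed by pin tool. Treatments were either a single drug or a fixed dose of an anchor drug with five library-drug doses (not always all listed) in √10 steps. After 5 days, nuclei were stained in a one-step fixation (final 0.05% Triton X-100, 1% formaldehyde, 1 ug/ml Hoechst) and counted on 4× images, and relative viability is the treated-to-vehicle nuclei ratio, as the median of duplicate plates.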

[2] = compound: CC[C@H](CO)Nc1nc(NCc2ccccc2)c2ncn(C(C)C)c2n1 [Seliciclib] + CCNC(=O)c1noc(-c2cc(C(C)C)c(O)cc2O)c1-c1ccc(CN2CCOCC2)cc1 [Luminespib] (partner 0.01 µM)
Method in brief: as §1

[3] = compound: CC[C@H](CO)Nc1nc(NCc2ccccc2)c2ncn(C(C)C)c2n1 [Seliciclib] + C[C@]1(O)C[C@@H](c2nc(-c3ccc4ccc(-c5ccccc5)nc4c3)c3c(N)nccn32)C1 [Linsitinib] (partner 1 µM)
Method in brief: as §1

[4] = compound: CC[C@H](CO)Nc1nc(NCc2ccccc2)c2ncn(C(C)C)c2n1 [Seliciclib] + COc1cc2c(Oc3ccc(NC(=O)C4(C(=O)Nc5ccc(F)cc5)CC4)cc3F)ccnc2cc1OCCCN1CCOCC1 [Foretinib] (partner 0.25 µM)
Method in brief: as §1

| Cell Line | relative viability ([1]; first compound 0.08 µM) | relative viability ([1]; first compound 0.253 µM) | relative viability ([1]; first compound 0.8 µM) | relative viability ([1]; first compound 2.53 µM) | relative viability ([1]; first compound 8 µM) | relative viability ([2]; first compound 0.08 µM) | relative viability ([2]; first compound 0.253 µM) | relative viability ([2]; first compound 0.8 µM) | relative viability ([2]; first compound 2.53 µM) | relative viability ([2]; first compound 8 µM) | relative viability ([3]; first compound 0.08 µM) | relative viability ([3]; first compound 0.253 µM) | relative viability ([3]; first compound 0.8 µM) | relative viability ([3]; first compound 2.53 µM) | relative viability ([3]; first compound 8 µM) | relative viability ([4]; first compound 0.08 µM) | relative viability ([4]; first compound 0.253 µM) | relative viability ([4]; first compound 0.8 µM) | relative viability ([4]; first compound 2.53 µM) | relative viability ([4]; first compound 8 µM) |
| --- | --- | --- | --- | --- | --- | --- | --- | --- | --- | --- | --- | --- | --- | --- | --- | --- | --- | --- | --- | --- |
| NCI-H1734 | 0.847 | 0.733 | 0.834 | 0.879 | 0.808 | 0.186 | 0.199 | 0.181 | 0.159 | 0.222 | 0.951 | 0.819 | 0.824 | 1.02 | 0.775 | 0.809 | 0.702 | 0.802 | 0.793 | 0.738 |
| NCI-H1755 | 0.984 | 0.997 | 0.998 | 1.04 | 0.871 | 0.573 | 0.565 | 0.444 | 0.406 | 0.407 | 0.982 | 1.02 | 0.978 | 1.02 | 0.993 | 0.94 | 0.891 | 1.02 | 0.882 | 0.915 |
| NCI-H1793 | 0.432 | 0.335 | 0.326 | 0.511 | 0.313 | 0.216 | 0.158 | 0.147 | 0.307 | 0.14 | 0.784 | 0.545 | 0.79 | 1.16 | 0.743 | 0.706 | 0.6 | 0.654 | 0.712 | 0.456 |
| NCI-H1915 | 0.776 | 0.779 | 0.759 | 0.8 | 0.618 | 0.756 | 0.765 | 0.785 | 0.853 | 0.653 | 1.11 | 1.14 | 1.14 | 1.12 | 0.885 | 1.09 | 1.15 | 1.05 | 1.09 | 0.815 |
| NCI-H1944 | 0.987 | 1.01 | 0.946 | 1.11 | 0.871 | 0.69 | 0.716 | 0.613 | 0.791 | 0.549 | 1.08 | 1.19 | 1.09 | 1.17 | 0.904 | 0.881 | 0.866 | 0.829 | 0.9 | 0.554 |
| NCI-H1975 | 1 | 0.959 | 1.05 | 1.12 | 0.878 | 0.2 | 0.124 | 0.19 | 0.198 | 0.479 | 1.03 | 0.865 | 0.975 | 0.819 | 0.6 | 1 | 0.977 | 0.894 | 0.932 | 0.748 |
| NCI-H1993 | 0.937 | 0.635 | 0.927 | 0.962 | 0.849 | 0.879 | 0.733 | 0.875 | 0.674 | 0.612 | 0.746 | 0.749 | 0.768 | 0.724 | 0.713 | 0.742 | 0.722 | 0.723 | 0.694 | 0.756 |
| NCI-H2009 | 1.14 | 1.17 | 1.13 | 1.2 | 1.08 | 0.998 | 1.13 | 1.07 | 1.01 | 0.943 | 1.24 | 1.16 | 1.09 | 1.19 | 1.19 | 1.21 | 1.24 | 1.22 | 1.18 | 1.27 |
| NCI-H2023 | 0.895 | 0.853 | 0.967 | 0.949 | 0.891 | 0.681 | 0.832 | 0.703 | 0.569 | 0.421 | 0.642 | 0.574 | 0.633 | 0.746 | 0.572 | 0.752 | 0.664 | 0.865 | 0.909 | 0.833 |
| NCI-H2085 | 1.13 | 1.16 | 1.14 | 1.05 | 0.965 | 0.508 | 0.462 | 0.414 | 0.398 | 0.372 | 0.808 | 0.805 | 0.928 | 0.856 | 0.763 | 0.89 | 0.954 | 0.903 | 0.829 | 0.676 |
| NCI-H2087 | 0.914 | 0.879 | 0.991 | 0.879 | 0.696 | 0.192 | 0.188 | 0.158 | 0.193 | 0.231 | 0.896 | 0.991 | 1 | 0.867 | 0.862 | 1.16 | 1.05 | 1.04 | 1.07 | 0.816 |
| NCI-H2126 | 0.817 | 0.799 | 0.844 | 0.878 | 0.787 | 0.906 | 0.733 | 0.89 | 0.642 | 0.781 | 0.718 | 0.711 | 0.698 | 0.721 | 0.716 | 1.11 | 1.21 | 1.07 | 0.968 | 0.943 |
| NCI-H2228 | 0.562 | 0.447 | 0.913 | 0.735 | 0.653 | 0.157 | 0.155 | 0.14 | 0.185 | 0.149 | 0.848 | 0.491 | 0.612 | 0.564 | 0.57 | 0.931 | 0.826 | 0.727 | 0.856 | 0.591 |
| NCI-H2347 | 0.763 | 0.801 | 0.73 | 0.859 | 0.568 | 0.428 | 0.328 | 0.512 | 0.412 | 0.721 | 1.05 | 0.995 | 0.849 | 1 | 0.922 | 1.18 | 1.23 | 0.938 |  | 0.738 |
| NCI-H2405 | 0.666 | 0.71 | 0.754 | 0.717 | 0.631 | 0.676 | 0.661 | 0.799 | 0.385 | 0.548 | 0.978 | 0.962 | 0.863 | 0.941 | 0.793 | 1.06 | 1.16 | 1.07 | 0.836 | 0.939 |
| NCI-H3122 | 1.02 | 1.07 | 1.01 | 1.03 | 0.903 | 0.0896 |  | 0.1 | 0.0781 | 0.11 | 0.966 | 1.03 | 0.987 | 1.05 | 0.94 | 1.03 |  | 0.938 | 0.983 | 0.786 |
